Target: T1, Aromatase [1-48] (Homo sapiens, UniProt P11511)
T1 construct: 1-48
T1 sequence (P11511 whole entry): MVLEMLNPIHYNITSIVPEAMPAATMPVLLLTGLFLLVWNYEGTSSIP
Assay: Biological Assay
Experimental: The inhibitory activities of the compounds toward aromatase were determined in vitro using human placental microsomes and [1,2,6,7-3H]-androstenedione.

| IC50 [nM] | Structure (SMILES) |
| --- | --- |
| 200 | COc1ccc2c(c1)OC(c1ccc(Cl)cc1)CC2n1ccnc1 (trans isomer) [2,4-Trans-4'-chloro-4-imidazolyl-7-methoxyflavan, 3b] |
| 130 | COc1ccc2c(c1)OC(c1cccc(O)c1)CC2n1ccnc1 (stereo not drawn) [2,4-Trans-3'-hydroxy-4-imidazolyl-7-methoxyflavan, 3a] |
| 77 | Oc1ccc(C2CC(n3ccnc3)c3ccc(O)cc3O2)cc1 (stereo not drawn) [2,4-Trans-4',7-dihydroxy-4-imidazolyl-7-methoxyflavan, 3e] |
| 133 | COc1ccc2c(c1)OC(c1ccc(C#N)cc1)CC2n1ccnc1 (stereo not drawn) [2,4-Trans-4'-cyano-4-imidazolyl-7-methoxyflavan, 3c] |
| 40 | COc1ccc2c(c1)OC(c1ccc(O)cc1)CC2n1ccnc1 (stereo not drawn) [2,4-Trans-4'-hydroxy-4-imidazolyl-7-methoxyflavan, 3d] |

Source: BindingDB's records for doi:10.1016/j.bioorg.2004.06.008 (BiomolÉCules Et Cibles Cellulaires Tumorales, 2004)
